Data taken from the supplement of paper PMC10307832.

Compound: CC(C)C[C@H](NC(=O)[C@H](CCc1ccccc1)NC(=O)CN1CCOCC1)C(=O)N[C@@H](Cc1ccccc1)C(=O)N[C@@H](CC(C)C)C(=O)[C@@]1(C)CO1 [Carfilzomib] + CC(=O)c1c(C)c2cnc(Nc3ccc(N4CCNCC4)cn3)nc2n(C2CCCC2)c1=O [Palbociclib] (partner 0.5 µM)
Assay: relative viability (nuclei count vs DMSO), 5 days (fraction); higher = more cells survive
Settings: first compound 0.001 µM
Outline: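 Relative viability divides the nuclei count in treated wells by that in vehicle wells. Lung cancer cell lines were seeded in 1536-well plates, dosed by pin tool the next day, and fixed and stained after 5 days in one step with final 0.05% Triton X-100, 1% formaldehyde and 1 ug/ml Hoechst. Dosing was a single drug or a fixed anchor-drug dose plus five library-drug doses (not always all listed) in √10 steps, and values are medians of duplicate plates imaged at 4×.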

Row | Cell Line | relative viability
1 | LOU-NH91 | 0.492
2 | LU99A | 0.408
3 | LXF-289 | 0.586
4 | NCI-H23 | 0.508
5 | NCI-H322M | 0.487
6 | NCI-H441 | 0.217
7 | NCI-H460 | 0.125
8 | NCI-H520 | 0.187
9 | NCI-H647 | 0.458
10 | NCI-H727 | 0.575
11 | NCI-H838 | 0.209
12 | NCI-H1355 | 0.41
13 | NCI-H1437 | 0.318
14 | NCI-H1650 | 0.306
15 | NCI-H1651 | 0.521
16 | NCI-H1666 | 0.674

Row | Cell Line | relative viability
17 | NCI-H1734 | 0.346
18 | NCI-H1755 | 0.465
19 | NCI-H1792 | 0.655
20 | NCI-H1915 | 0.479
21 | NCI-H1944 | 0.318
22 | NCI-H1975 | 0.364
23 | NCI-H1993 | 0.667
24 | NCI-H2009 | 0.186
25 | NCI-H2023 | 0.341
26 | NCI-H2085 | 0.501
27 | NCI-H2087 | 0.194
28 | NCI-H2126 | 0.374
29 | NCI-H2170 | 0.38
30 | NCI-H2347 | 0.463
31 | NCI-H2405 | 0.498

Same assay, conditions: first compound 0.003162 µM

Row | Cell Line | relative viability
32 | LOU-NH91 | 0.543
33 | LU99A | 0.402
34 | LXF-289 | 0.582
35 | NCI-H23 | 0.484
36 | NCI-H322M | 0.475
37 | NCI-H441 | 0.219
38 | NCI-H460 | 0.225
39 | NCI-H520 | 0.217
40 | NCI-H647 | 0.45
41 | NCI-H727 | 0.607
42 | NCI-H838 | 0.226
43 | NCI-H1355 | 0.419
44 | NCI-H1395 | 0.676
45 | NCI-H1437 | 0.329
46 | NCI-H1650 | 0.371
47 | NCI-H1651 | 0.549

Row | Cell Line | relative viability
48 | NCI-H1666 | 0.67
49 | NCI-H1734 | 0.382
50 | NCI-H1755 | 0.458
51 | NCI-H1792 | 0.646
52 | NCI-H1915 | 0.513
53 | NCI-H1944 | 0.361
54 | NCI-H1975 | 0.635
55 | NCI-H1993 | 0.658
56 | NCI-H2009 | 0.275
57 | NCI-H2023 | 0.344
58 | NCI-H2085 | 0.47
59 | NCI-H2087 | 0.343
60 | NCI-H2126 | 0.372
61 | NCI-H2170 | 0.437
62 | NCI-H2347 | 0.427
63 | NCI-H2405 | 0.527

Same assay, conditions: first compound 0.01 µM

Row | Cell Line | relative viability
64 | LOU-NH91 | 0.514
65 | LU99A | 0.439
66 | LXF-289 | 0.569
67 | NCI-H23 | 0.429
68 | NCI-H322M | 0.543
69 | NCI-H441 | 0.178
70 | NCI-H460 | 0.0809
71 | NCI-H520 | 0.162
72 | NCI-H647 | 0.306
73 | NCI-H727 | 0.628
74 | NCI-H838 | 0.268
75 | NCI-H1355 | 0.432
76 | NCI-H1395 | 0.635
77 | NCI-H1437 | 0.415
78 | NCI-H1650 | 0.209
79 | NCI-H1651 | 0.485

Row | Cell Line | relative viability
80 | NCI-H1666 | 0.651
81 | NCI-H1734 | 0.354
82 | NCI-H1755 | 0.461
83 | NCI-H1792 | 0.707
84 | NCI-H1915 | 0.521
85 | NCI-H1944 | 0.372
86 | NCI-H1975 | 0.472
87 | NCI-H1993 | 0.641
88 | NCI-H2009 | 0.201
89 | NCI-H2023 | 0.405
90 | NCI-H2085 | 0.456
91 | NCI-H2087 | 0.192
92 | NCI-H2126 | 0.337
93 | NCI-H2170 | 0.456
94 | NCI-H2347 | 0.438
95 | NCI-H2405 | 0.539

Same assay, conditions: first compound 0.03162 µM

Row | Cell Line | relative viability
96 | LOU-NH91 | 0.363
97 | LU99A | 0.351
98 | LXF-289 | 0.0924
99 | NCI-H23 | 0.212
100 | NCI-H322M | 0.522
101 | NCI-H441 | 0.0969
102 | NCI-H460 | 0.0983
103 | NCI-H520 | 0.133
104 | NCI-H647 | 0.0189
105 | NCI-H727 | 0.584
106 | NCI-H838 | 0.193
107 | NCI-H1355 | 0.422
108 | NCI-H1395 | 0.497
109 | NCI-H1437 | 0.296
110 | NCI-H1650 | 0.11
111 | NCI-H1651 | 0.151

Row | Cell Line | relative viability
112 | NCI-H1666 | 0.615
113 | NCI-H1734 | 0.315
114 | NCI-H1755 | 0.408
115 | NCI-H1792 | 0.634
116 | NCI-H1915 | 0.514
117 | NCI-H1944 | 0.318
118 | NCI-H1975 | 0.119
119 | NCI-H1993 | 0.723
120 | NCI-H2009 | 0.0584
121 | NCI-H2023 | 0.235
122 | NCI-H2085 | 0.371
123 | NCI-H2087 | 0.0427
124 | NCI-H2126 | 0.346
125 | NCI-H2170 | 0.339
126 | NCI-H2347 | 0.382
127 | NCI-H2405 | 0.489

Same assay, conditions: first compound 0.1 µM

Row | Cell Line | relative viability
128 | LOU-NH91 | 0.314
129 | LU99A | 0.188
130 | LXF-289 | 0.12
131 | NCI-H23 | 0.116
132 | NCI-H322M | 0.37
133 | NCI-H441 | 0.155
134 | NCI-H460 | 0.0171
135 | NCI-H520 | 0.144
136 | NCI-H647 | 0.0185
137 | NCI-H727 | 0.417
138 | NCI-H838 | 0.102
139 | NCI-H1355 | 0.139
140 | NCI-H1395 | 0.31
141 | NCI-H1437 | 0.213
142 | NCI-H1650 | 0.188
143 | NCI-H1651 | 0.0991
144 | NCI-H1666 | 0.488
145 | NCI-H1734 | 0.105
146 | NCI-H1755 | 0.293
147 | NCI-H1792 | 0.466
148 | NCI-H1915 | 0.0575
149 | NCI-H1944 | 0.152
150 | NCI-H1975 | 0.107
151 | NCI-H1993 | 0.383
152 | NCI-H2009 | 0.0475
153 | NCI-H2023 | 0.0653
154 | NCI-H2085 | 0.265
155 | NCI-H2087 | 0.0568
